Data from patent US20240245677A1, “SELECTED COMPOUNDS FOR TARGETED DEGRADATION OF BRD9” (C4 THERAPEUTICS, INC., priority 2021, published 2024).
Read-outs that look alike come from different tables or passages of the source.

Biological target: T1, BRD9 (Homo sapiens, UniProt Q9H8M2)
T1 sequence (Q9H8M2 1-597): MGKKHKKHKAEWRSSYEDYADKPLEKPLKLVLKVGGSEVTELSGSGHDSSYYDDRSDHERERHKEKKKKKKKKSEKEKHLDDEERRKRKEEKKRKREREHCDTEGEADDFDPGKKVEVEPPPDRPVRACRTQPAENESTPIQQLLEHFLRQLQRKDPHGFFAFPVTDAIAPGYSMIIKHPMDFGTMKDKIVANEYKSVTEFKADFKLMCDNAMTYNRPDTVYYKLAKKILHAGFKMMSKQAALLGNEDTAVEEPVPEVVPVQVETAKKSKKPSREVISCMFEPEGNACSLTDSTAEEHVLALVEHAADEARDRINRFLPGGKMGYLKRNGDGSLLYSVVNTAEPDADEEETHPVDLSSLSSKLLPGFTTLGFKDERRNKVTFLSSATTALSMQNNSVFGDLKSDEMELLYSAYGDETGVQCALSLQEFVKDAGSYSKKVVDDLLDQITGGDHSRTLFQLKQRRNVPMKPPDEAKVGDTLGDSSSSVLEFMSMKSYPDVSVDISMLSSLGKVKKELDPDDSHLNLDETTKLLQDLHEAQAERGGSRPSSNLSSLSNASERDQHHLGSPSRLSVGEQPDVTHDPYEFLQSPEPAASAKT
Experiment: BRD9 degradation in Yamato-SS cells (endogenous), Western blot
Assay type: cell-based
Settings: percent BRD9 detected, read-out: Emax(%)
Method: The purpose of this study was to evaluate the detection of BRD9 in a human cell line and susceptibility to degradation by Compound 1.
Previously frozen YAMATO-SS human cells (provided by the RIKEN BRC through the National BioResource Project of the MEXT/AMED, Japan (cat #RCB3577)) were thawed. Upon thawing, the cells were transferred to a 15 mL conical tube containing 10 mL of warm RPMI-1640 medium (Catalog No. C2400500BT, Gibco, Grand Island, NY, USA) supplemented with 10% FBS (Catalog No. SV30087.03, Cytiva, Marlborough, MA, USA) and spun down for 5 minutes at 1200 rpm. An aliquot was diluted 2× with Trypan Blue solution 0.4% (Catalog No. 15250061, ThermoSischer Scientific, Waltham, MA, USA) and cell count was determined. […]
Samples were boiled for 5 minutes and placed on ice for 30 minutes. […] Supernatants were transferred to a new 2.0 mL microcentrifuge tube and total protein concentrations were measured using Pierce™ BCA Protein Assay Kit (Catalog No. 23225, ThermoFischer Scientific, Waltham, MA USA).
After total protein quantification, all samples were diluted to a fixed μg/μL of protein in 6× loading buffer (Catalog No. BP-111R, Boston Bioproducts, Inc., Milford, MA, USA) for a final concentration of 40 μg of total protein in 1× loading buffer per lane. […]

## COc1cc(-c2cn(C)c(=O)c(C)c2C)cc(OC)c1CN1CC[C@H](N2CCN(c3ccc(N[C@H]4CCC(=O)NC4=O)cc3F)CC2)C(F)(F)C1 [Compound 1, (S)-3-((4-(4-((S)-1-(2,6-dimethoxy-4-(1,4,5-trimethyl-6-oxo-1,6-dihydropyridin-3-yl)benzyl)-3,3-difluoropiperidin-4-yl)piperazin-1-yl)-3-fluorophenyl)amino)-piperidine-2,6-dione]
4 hr
  % BRD9 remaining: 1.2%
24 hr
  % BRD9 remaining: 3.4%
